Reference: patent US4426377A, “Clavulanic acid derivatives their preparation and use” (Beecham Group Limited, priority 1977, dated 1984)

How the values were obtained:
[1] = system: gram negative bacteria such as Escherichia and Klebsiella and gram positive bacteria such as Staphylococcus; assay: summary of synergism with penicillins; settings: against gram negative and gram positive bacteria
Experimental: (§1) a. Sub-cutanvenous administration: Groups of mice were infected inter peritoneally with Escherichia coli JT39. At 1 and 5 hours post infection the mice were treated with amoxycillin (Amox.) or with amoxycillin and synergist. The solutions were made up in phosphate buffer. The results were as follows:
(§2) b. Oral administration: Groups of mice were infected inter peritoneally with Escherichia coli JT39. At 1, 3 and 5 hours post-infection the mice were treated with amoxycillin or with amoxycillin and synergist. The solutions were made up in phosphate buffer.

[2] = signs of drug toxicity during the in-vivo tests; settings: during the in-vivo tests in mice
Experimental: as §1, §2

[3] = system: Escherichia coli JT 39; assay: CD50 in intraperitoneal Escherichia coli JT 39 infection in mice, sub-cutaneous dosing (Demonstration 2); type: in vivo, mice infected with Escherichia coli; settings: with amoxycillin, E. coli JT 39 infection in mice
Experimental: b. […] Dosing was sub-cutaneous and 1 and 5 hours post infection.

[4] = system: E. Coli JT 410; assay: microliter MIC test, E. coli JT 410; type: cell-based, Escherichia coli
Experimental: (§3) a. The antibacterial and synergistic activity of the title compound (referred to as "Synergist" in the Table) was determined by a conventional microliter method.

[5] = system: Kleb. E 70; assay: microliter MIC test, Kleb. E 70; type: cell-based, Klebsiella
Experimental: as §3

[6] = system: Proteus C 889; assay: microliter MIC test, Proteus C 889; type: cell-based; settings: for MIC of ampicillin with title compound: trailing end point
Experimental: as §3

[7] = system: Staph. Russell; assay: microliter MIC test, Staph. Russell; type: cell-based, Staphylococcus
Experimental: as §3

O=C1CC(OC/C=C2\O[C@@H]3CC(=O)N3[C@H]2C(=O)O)N1 (some centres unmarked) [Example 2, Sodium 9-O-(azetidin-2'-on-4'-yl)clavulanate]
synergism with penicillins such as amoxycillin [1]: effective synergist for penicillins such as amoxycillin against gram negative bacteria such as Escherichia and Klebsiella and gram positive bacteria such as Staphylococcus
signs of drug toxicity [2]: No signs of drug toxicity were observed

CC(NC=O)OC/C=C1\O[C@@H]2CC(=O)N2[C@H]1C(=O)O (some centres unmarked) [Example 9, Lithium 9-O-(1-formamidoethyl)clavulanate]
effect on the effectiveness of amoxycillin [3]: found to enhance the effectiveness of amoxycillin

NCC(=O)NCOCC=C1OC2CC(=O)N2C1C(=O)O (centres unmarked) [Example 11, 9-O-(Glycylaminomethyl)clavulanic acid]
MIC of ampicillin with title compound/synergist ([4]; Amp. + 5 μg/ml of the compound): 62.5 µg/mL
MIC ([4]; alone): 62.5 µg/mL
MIC of ampicillin with title compound/synergist ([5]; Amp. + 1 μg/ml of the compound): 6.25 µg/mL
MIC of ampicillin with title compound/synergist ([5]; Amp. + 5 μg/ml of the compound): 1.5 µg/mL
MIC ([5]; alone): 62.5 µg/mL
MIC of ampicillin with title compound ([6]; Amp. + 1 μg/ml of the compound): 8 µg/mL
MIC of ampicillin with title compound ([6]; Amp. + 5 μg/ml of the compound): 2 µg/mL
MIC ([6]; alone): 250 µg/mL
MIC of ampicillin with title compound/synergist ([7]; Amp. + 1 μg/ml of the compound): 1.25 µg/mL
MIC of ampicillin with title compound/synergist ([7]; Amp. + 5 μg/ml of the compound): 0.15 µg/mL
MIC ([7]; alone): 8 µg/mL
